# Assay results reported in paper PMC10492782, “Exploiting the aggregation propensity of beta-lactamases to design inhibitors that induce enzyme misfolding” (Nature Communications, 2023).
# Key:
# E. coli TEM104 = details: checkerboard, strain containing TEM1 / TEM-1; FICI below 0.5 = synergy
# Method: (§1) To quantify the synergy between these four peptides and penicillin G, we performed a so-called checkerboard assay, which allows us to compare the activity of two test compounds co-incubated (here peptide and a beta-lactam antibiotic), to their individual activities in isolation. […] We evaluated the synergy of the peptides with penicillin G in clinical E. coli isolates carrying the TEM (Fig. 3D) or SHV enzymes (Fig. 3E). […] The list of strains included some that harbored only TEM or SHV, but others contained additional Ambler Class A (CTX-M or OXA) or Class B (VIM and NDM) beta-lactamases.
# For the analysis of synergy between the peptides and other antibiotics, a checkerboard assay was performed. Based on the MICs of the selected peptides, a checkerboard assay was designed to define their FICIs (Fractional Inhibitory Concentration Index) in combinations against different clinical isolates[53],[54]. Briefly, a total volume of 100 μL of Mueller–Hinton broth was distributed into each well of the 96-well plates. The first compound (peptide) of the combination was serially diluted vertically (128, 64, 32, 16, 8, 4, 2, 0 μg/mL) while the other drug (Beta-lactam or Kanamycin) was diluted horizontally in a 96-well plate (from 3200 to 3 μg/ mL). The total volume of each microtiter well was inoculated with 100 μL of MHB containing 1 × 10^6 CFU/mL bacteria. The plates were incubated at 37 °C for 24 h under aerobic conditions without shaking. Calculation of the FICI is used to analyze the results of the checkerboard assay by estimating the degree of synergistic effect. FICI is calculated as the sum of the individual fractional inhibitory concentrations (FICs) for each drug (where MIC A and MIC B denote the MIC of each drug alone, and MIC AA+B and MIC BA+B denote the concentrations of A and B in the drug combination). FICI = (MIC AA+B/MIC A) + (MIC BA+B/MIC B). With FICI ≤ 0.5, the combination of antibiotics is considered as a synergistic effect, 0.5 < FICI ≤ 1 indicates additivity, FICI > 1 indicates indifference.
# E. coli SHV11 = experiment: Checkerboard assay (FICI); type: cell-based, Escherichia coli; details: strain containing SHV-11, FICI below 0.5 = synergy
# Method: as §1
# For the analysis of synergy between the peptides and other antibiotics, a checkerboard assay was performed. Based on the MICs of the selected peptides, a checkerboard assay was designed to define their FICIs (Fractional Inhibitory Concentration Index) in combinations against different clinical isolates[53],[54]. Briefly, a total volume of 100 μL of Mueller–Hinton broth was distributed into each well of the 96-well plates. […] FICI is calculated as the sum of the individual fractional inhibitory concentrations (FICs) for each drug (where MIC A and MIC B denote the MIC of each drug alone, and MIC AA+B and MIC BA+B denote the concentrations of A and B in the drug combination). […]
# [1] = Thioflavin-T aggregation kinetics and electron microscopy of peptide; type: physicochemical; details: 50 μM peptide with polyphosphate; EM after 24 h incubation at RT
# Method: Fig. 4 Aggregation kinetics of TEM and SHV proteins and peptides. A Measurements of the hydrodynamic radius by Dynamic Light Scattering of 50 μM TEM3.2 in buffer alone, or in the presence of LPS or polyphosphate (PolyP). […] C Transmission Electron Micrograph of 50 μM TEM 3.2 incubated for 24 h in the same buffer as A with polyP, negatively stained with 2% (w/v) uranyl acetate. A single representative image is shown. […] Three replicates are shown for each condition. E Aggregation kinetics using pFTAA fluorescence emission of recombinantly purified TEM-1, in the presence of vehicle, or TEM 3.2 peptin, as well as peptin-only control. F Similar as in E, but using an off-target Pept-In, based on an APR sequence of beta-galactosidase. G Similar to E, but now using a previously published off-target Pept-In, based on an APR of HcaB. The plots are the results of a single experiment, all replicates are shown. Source data are provided as a Source Data file.
# A DynaPro DLS plate reader instrument (Wyatt, Santa Barbara, CA, USA) equipped with an 830 nm laser source was used to determine the hydrodynamic radius (RH) of the peptide particles. […] The autocorrelation of scattered light intensity at a 32° angle was recorded for 5 s and averaged over 20 recordings to obtain a single data point. […]
# E. coli UZ_TEM104 = experiment: FACS with pFTAA (aggregation) and propidium iodide (cell death); type: cell-based, Escherichia coli
# Method: Fig. 6 Uptake and inclusion body formation upon peptide treatment. Fluorescence-activated cell-sorting (FACS) (A) of E. coli strain UZ_TEM104 mixed 50–50% with the same strain after heat-inactivation. The cells were stained with pFTAA to monitor aggregation and propidium iodide (PI) to monitor cell permeabilization associated with cell death. 10^6 cells were analyzed for the plot. […] B Similar FACS analysis as in A, but with a sample of live bacteria only. […] Note: the horizontal and vertical lines correspond to the gatings used to obtain the quantifications shown in the corners of each image.
# Treated bacteria were washed with PBS buffer two times. One microliter of PI (Invitrogen) was added to the bacteria and incubated for 5 min. The bacteria were counted by FACS to reach 40000 events. To correlate the activity of the peptides with cell death, the fluorescence intensity was measured in two channels using the Gallios^TM Flow Cytometer (Beckman Coulter, USA), PI: excitation 536 nm and emission 617 nm, FITC: excitation 490 nm and emission 525 nm. Heated bacteria at 90 °C for 10 min were used as PI-positive control.
# The bacterial cultures were washed with PBS, and the number of bacteria was adjusted to 10^8–10^9 cells/mL. […] Then, cells were treated with LCO dyes (pFTAA; Amytacker^TM680 or Amytacker^TM545: final concentration of 0.5 µM; Ebba Biotech, Sweden) for at least 90 min. The absorption, emission, and excitation spectra for each dye were measured based on the standard Ebbabiotec advice (ebbabiotech.com).
# [2] = test system: uro-pathogenic E. coli strain (UPEC strain blaTEM-1); experiment: MIC of ampicillin with or without 32 µg/mL TEM3.2 or tazobactam; type: cell-based, Escherichia coli; details: 32 μg/mL of either TEM3.2 or tazobactam
# Method: We also performed a tolerability study using a dose escalation method by administering the peptide at 2, 5, 10, 15, and 20 mg/kg via different parenteral routes: intravenous (IV), intraperitoneal (IP), and subcutaneous (SC) in female C57BL/6JAX mice, aged 8–10 weeks (Suppl Table 4). […] Vehicle alone (0.9% NaCl) was also administered (IV). After 24 h the animals were sacrificed and the bacterial load in the bladder, kidney, and ureter was quantified by determining the number of colony-forming units (CFU) per mL of tissue extract (Fig. 7E–G).
# Determination of MIC values was performed using the broth microdilution method according to the EUCAST guideline, which was performed in 96-well polystyrene flat-bottom microtiter plates (BD Biosciences). Briefly, a single colony was inoculated into 5 mL Difco™ Mueller–Hinton Broth (BD Biosciences Ref 275730) and grown to the end-exponential growth phase in a shaking incubator at 37 °C. Cultures were subsequently diluted to a MacFarland (0.5 optical density) to reach 10^6 CFU/mL in fresh MHB medium. 50 µl of different concentrations of peptides ranging from 128 to 2 µg/mL were serially diluted to the sterile 96-well plate in MHB. 50 µL of the diluted bacteria in MHB were next pipetted into 96-well plates to reach the final volume of 100 µL. The bacteria grown with the maximum concentration of carrier and medium were considered positive and negative controls, respectively. The plates were statically incubated overnight at 37 °C to allow bacterial growth. OD was measured at 590 nm using a multipurpose ultraviolet–visible plate reader, and the absorbance of the bacterial growth was measured using an absorbance reader.
substance,measurement,setting,value
Ac-RLTAFLHNRRPRLTAFLRQRR-NH2 [TEM3.2],synergy with penicillin G (in words),E. coli TEM104,showed synergy in both strains
same,synergy with penicillin G (in words),E. coli SHV11,showed synergy in both strains
same,Thioflavin T binding and Transmission Electron Microscopy (in words),[1],amyloid-like aggregation in the presence of polyphosphate
same,cells with non-lethal aggregation (pFTAA shift),"E. coli UZ_TEM104; 50 μg/mL TEM3.2, 4 h in PBS",> 99%
same,shift in pFTAA and PI channels (in words),"E. coli UZ_TEM104; 4 h, penicillin G 400 μg/mL and/or TEM3.2 50 μg/mL",a shift of the bacterial population only in the pFTAA channel
same,MIC Ampicillin in the presence of additive,[2],25 µg/mL
